Data on 1 compound can be found in publication PMC11306511, “Combining VPS34 inhibitors with STING agonists enhances type I interferon signaling and anti‐tumor efficacy” (Molecular Oncology, 2024).

SMILES strings stand for the structures. Values after ≈ are worked out from the molar mass of the structure shown. Where two headings read alike, the source gives them in different places.

One series in a line: Shake flask LogD. Format: physicochemical. How it is done: (§1) Experiments were conducted at Aragen Life Sciences Ltd. (Hyderabad, India) according to internal standard procedures.
The nature of series [1]: Solubility (PBS, FaSSIF, SGF). Format: physicochemical. How it is done: as §1
A further series deals with Renca tumors. Briefly: NanoString gene expression and network enrichment analysis of Renca tumors. Format: in vivo, mouse. The source says:
Study protocols were approved by the Institutional Animal Care and Use Committee of CrownBio in China (AN‐1903‐05‐313) or the LIH's animal welfare committee in Luxembourg (agreement LECR‐2018‐12). Mice were handled according to European Union guidelines, adhering to the principles of replacement, reduction, and refinement (3Rs). Animals were housed in appropriate accommodations conducive to their well‐being, with provisions for housing, feeding, and environmental enrichment to meet their physical and behavioral needs. Highly skilled personnel were involved in carrying out procedures related to the animal experiments to ensure proper care and handling. Female 6 to 8‐week‐old BALB/c (supplied by Shanghai Lingchang Biotechnology Co., Shanghai, China; n = 14) or C57BL/6 mice (supplied by Janvier Labs, Le Genest‐Saint‐Isle, France; n = 40) were injected into the right flank with 1 × 10^6 Renca or 0.2 × 10^6 B16‐F10 cells, respectively, resuspended in 100 μL PBS (day 0). When tumors were palpable (day 9 for Renca, day 7 for B16‐F10 tumors), mice were randomly assigned into two groups for the Renca model with n = 6 (vehicle) and n = 8 (SB02024) or four groups for the B16‐F10 model with n = 10. Daily treatment with 20 mg·kg^−1 SB02024 or vehicle (0.5% methylcellulose in water supplemented with 1% Tween‐80) was administered by oral gavage (day 9–16 for Renca, day 7–16 for B16‐F10 model). For combination studies, ADU‐S100 (10 μg in 40–50 μL PBS) or vehicle (PBS) treatment was administered by intratumoral injection (days 9, 11, 13, and 15). Tumor growth was measured using a caliper every other day and estimated as follows: volume (cm^3) = (width)^2 × length × 0.5.
Renca tumor RNA was isolated using the Rneasy Plus kit (#74134; Qiagen, Venlo, the Netherlands), quantified using a NanoDrop spectrophotometer (Thermo Fisher), and 100 ng was used as input for the nCounter PanCancer IO 360 mouse panel (NanoString Technologies, Seattle, WA, USA). Data were analyzed by NanoString's data analysis service. Network enrichment analysis (NEA) was carried out by Evi‐networks, Sweden (see detailed description in Table S2).

For the next series, the system named is Me30966 cells. Briefly: Gene expression (qRT-PCR) in Me30966 cells. The conditions noted are these: 2 μM, 24 h, vs DMSO. Format: cell-based, human.
A short description of series [2]: Plasma protein binding, mouse. The conditions noted are these: unbound/free fraction, read-out: PPB (% unbound) mouse. Format: in vitro ADME. As to the method:
as §1

Series [3] is described as follows: PK profiling in H1299-GFP-2xFYVE tumor-bearing mice (plasma and tumor). Format: in vivo, mouse. How it is done: (§2) The study was performed by Truly Translational AB (Lund, Sweden) following Swedish legislations and approved by the ethical committee Malmö/Lunds djurförsöksetiska nämnd (M120‐15). Animals were housed 5/cage in polysulfone IVC cages at a constant temperature with 12 h light‐dark cycles and free access to food, tap water, and cage enrichment. Animals were allowed to acclimatize to the housing conditions for at least a week before the start of experiments. Female 8‐week‐old NOD.Cg‐Prkdc^ scid Il2rg^ tm1Sug /JicTac (CIEA‐NOG®) mice (supplied by Taconic Biosciences, Rensselaer, NY, USA; n = 42) were implanted subcutaneously with 1.75 × 10^6 H1299‐GFP2xFYVE cells in serum‐free RPMI in 50% Matrigel. When tumors reached 300–400 mm^3 mice were randomized and dosed with 9 or 29 mg·kg^−1 SB02024 or vehicle (PEG 200 (98%)/Polysorbate (2%)). At indicated time points after dosing, blood samples were taken by heart puncture and tumors were removed. Pharmacokinetic (PK) analysis (plasma and tumor samples) was performed by Q&Q Labs (Gothenburg, Sweden). Plasma was precipitated with acetonitrile, and after centrifugation, the soluble material was recovered. Tumor of 50–150 mg was homogenized mechanically in the presence of 5× acetonitrile relative to tissue weight using Precellys Tissue Homogenizer (Bertin Technologies, Montigny‐le‐Bretonneux, France). Samples were centrifuged and soluble material was kept for further analysis. SB02024 levels were determined using UHPLC‐QQQ: Agilent 6460 (LC–MS/MS; Agilent Technologies, Santa Clara, CA, USA). Pharmacodynamic (PD) analysis of GFP2xFYVE punctae was performed by Offspring Biosciences (Södertalje, Sweden). H1299‐GFP2xFYVE tumors were fixed by immersion in 4% formalin in PBS for 72 h at 4 °C, sampled randomly by six biopsies (diameter 1 mm), and reassembled into three separate tumor microarrays (TMAs). Each TMA block was sectioned and analyzed at eight equally spaced levels. The immunohistochemical staining was performed using the Ventana Discovery XT protocol. […]

A short description of series [4]: CaCo2 monolayer permeability assay. Format: in vitro ADME. The conditions noted are these: human, Caco-2. As to the method:
as §1

Another series has as its system VPS34 activity. Briefly: PD: GFP-2xFYVE puncta in H1299 tumors (immunohistochemistry). The conditions noted are these: 9 or 29 mg·kg^−1 oral. Format: in vivo, mouse. As to the method:
as §2, with “Tumor of 50–150 mg was homogenized mechanically in the presence of 5× acetonitrile relative to tissue weight using Precellys Tissue Homogenizer (Bertin Technologies, Montigny‐le‐Bretonneux, France). Samples were centrifuged and soluble material was kept for further analysis.” left out, “Pharmacodynamic (PD) analysis of GFP2xFYVE punctae was performed by Offspring Biosciences (Södertalje, Sweden). H1299‐GFP2xFYVE tumors were fixed by immersion in 4% formalin in PBS for 72 h at 4 °C, sampled randomly by six biopsies (diameter 1 mm), and reassembled into three separate tumor microarrays (TMAs).” left out, “levels.” for “levels. The immunohistochemical staining was performed using the Ventana Discovery XT protocol.”

A short description of series [5]: Plasma protein binding, human. Format: in vitro ADME. The conditions noted are these: unbound/free fraction, read-out: PPB (% unbound) human. As to the method: as §1
The mark [6] stands for this setting: 20 mg·kg^−1, NanoString, vs vehicle.

Method for Me30966 cells: RNA was isolated using the PureLink kit (#12183018A; Thermo Fisher) and DNA‐binding columns (Rneasy plus kit, #74134; Qiagen) and/or Dnase treatment (#12185010; Thermo Fisher). After quantification using NanoDrop, 50 ng·μL^−1 RNA was used for cDNA synthesis with SuperScript IV VILO Master Mix (#11756050; Thermo Fisher). Quantitative RT‐PCR was run with diluted cDNA (1 : 25 or 1 : 12.5), PowerUp SYBR Green Master Mix (#A25741; Thermo Fisher), and 200 nM primers (see Table S3) on a CFX Connect RT‐PCR system (BioRad, Hercules, CA, USA). Data were analyzed using the ΔΔCT method.
(A) IFNB1 gene expression quantified by qRT-PCR after 24h treatment with DMSO control or 2 µM of VPS34 inhibitor
(=VPS34i, SB02024 or SAR405) in Me30966 cells.

`C[C@@H]1COCCN1c1cc(N2CCCC[C@@H]2C(F)(F)F)[nH]c(=O)c1` [SB02024] yielded a logD in the series “Shake flask LogD” of 1.8. In series [1], the “solubility in both gastric and small intestinal pH media (in words)” value is given as “excellent”. The solubility in [1] (FaSSIF, pH 6.5, fassif, read-out: Solubility FaSSIF, pH 6.5) is 890 µM (≈ 307 µg/mL); in [1] (PBS buffer, pH 7.4, aqueous buffer, read-out: Solubility in PBS buffer, pH 7.4), 175 µM (≈ 60.4 µg/mL); in series [1] (SGF, pH 1.8, simulated gastric fluid, read-out: Solubility SGF, pH 1.8), 2150 µM (≈ 743 µg/mL). In addition, the “Ptprc gene expression (CD45+ cells) in Renca tumors” value with Renca tumors (setting [6]) is “significantly increased”. For the same compound, in the series on Renca tumors (setting [6]), the “gene signatures for cytotoxic cells, T cells, total and CD56dim NK cells, macrophages, neutrophils” value is “significant increase”. Besides, the “Reactome gene signature for STING-mediated signaling, enrichment” value in the series with Renca tumors (NEA, r-mmu-3134975 as printed, treated tumors vs vehicle controls) is “enrichment”. Further, in the series on Renca tumors (NEA, treated tumors vs vehicle controls), the “STAT1 and IFN gene signature for ICB sensitivity (Zemek et al.), enrichment” value is “significantly enriched”. The IFNB1 expression entry in the series with Me30966 cells was “significantly increased”. Further, the fraction unbound in series [2] stood at 0.14; in [5], 0.44. The compound further came in with a Cmax in series [3] (female, NOD.Cg-Prkdc scid Il2rg tm1Sug/JicTac (CIEA-NOG), mouse, oral 29 mg·kg^−1, plasma and tumor, H1299-GFP-2xFYVE tumor-bearing CIEA NOG mice) of roughly 10 µM. In series [3] (female, NOD.Cg-Prkdc scid Il2rg tm1Sug/JicTac (CIEA-NOG), mouse, oral 29 mg·kg^−1, tumor and plasma concentrations), this compound gave a half-life of 2.5 h. Besides, the “time of Cmax” value in series [3] (oral 29 mg·kg^−1, plasma and tumor) was 2 h. The compound further yielded a Papp A→B in series [4] of 51 ×10⁻⁶ cm/s. The efflux ratio in series [4] amounted to 0.9. In addition, the “duration of inhibition of GFP-2xFYVE puncta formation” value in the series on VPS34 activity is recorded as “about 8 h”. Moreover, the “GFP-2xFYVE puncta (autophagosome and endosome) formation in H1299 tumors” value in the series with VPS34 activity (after 2 h) was “inhibited”.
